Measurements reported in patent US9139532B2, “Pyrazolyl guanidine F1F0-atpase inhibitors and therapeutic uses thereof” (Lycera Corporation, priority 2010, dated 2015).
Where two headings read alike, the source gives them in different places.

Experiments:
F1F0-ATPase = target: T1, F1F0-ATPase (Bos taurus, UniProt P13621); experiment: Inhibition of F1F0-ATPase activity in synthesizing ATP; type: biochemical; conditions: inhibition of ATP synthesis by F1F0-ATPase; read-out: ATP Syn IC50
T1 construct: from tissue

Ramos cells = experiment: Cytotoxicity in Ramos cells; type: cell-based; conditions: cytotoxicity in Ramos cells, read-out: Ramos Cell EC50

Compound | IC50 (F1F0-ATPase) [µM] | EC50 (Ramos cells) [µM] | EC50 (Ramos cells; Homo sapiens) [µM]
CC(C)(C)NC(=NC(=O)c1ccc(C(F)(F)F)cc1)Nc1cc(-c2ccccc2)[nH]n1 [Compound A-153] | < 10 | – | < 10
Cc1cc(N/C(=N\C(=O)c2ccc(C(F)(F)F)cc2)NCC(C)(C)C)n[nH]1 [Compound A-155] | < 10 | < 10 | –
O=C(/N=C(\Nc1cc(-c2ccc(F)cc2)[nH]n1)N1CCCC1)c1ccc(F)cc1 [Compound A-156] | > 10 | > 10 | –
COc1ccccc1C(=O)/N=C(\Nc1cc(-c2ccc(F)cc2)[nH]n1)NC(C)(C)C [Compound A-157] | > 10 | > 10 | –
CC(C)(C)N/C(=N/C(=O)c1ccc(N2CCOCC2)nc1)Nc1cc(-c2ccc(F)cc2)[nH]n1 [Compound A-164] | < 10 | < 10 | –
CC(C)CN/C(=N/C(=O)c1cccnc1C(F)(F)F)Nc1cc(-c2ccc(F)cc2)[nH]n1 [Compound A-166] | < 10 | < 10 | –
CC(C)(C)N/C(=N/C(=O)c1cccnc1C(F)(F)F)Nc1cc(-c2ccc(F)cc2)[nH]n1 [Compound A-167] | < 10 | < 10 | –
COc1cccc(C(=O)/N=C(/NCC(C)C)Nc2cc(-c3ccc(F)cc3)[nH]n2)c1 [Compound A-171] | < 10 | < 10 | –
COC(=O)Cc1ccc(N/C(=N/C(=O)c2ccc(F)cc2)Nc2cc(C(F)(F)F)n[nH]2)cc1 [Compound A-173] | < 10 | – | < 10
CCOCCCN/C(=N/C(=O)c1ccnc(CC)c1)Nc1cc(-c2ccc(F)cc2)[nH]n1 [Compound A-175] | < 10 | > 10 | –
CCc1cc(C(=O)/N=C(\Nc2cc(-c3ccc(F)cc3)[nH]n2)NC(C)(C)C)ccn1 [Compound A-177] | < 10 | < 10 | –
CCOC[C@H](C)N/C(=N/C(=O)c1ccc(Cl)c(F)c1)Nc1cc(C)[nH]n1 [Compound A-180] | < 10 | > 10 | –
COc1ccc(C(=O)/N=C(/NCC(C)C)Nc2cc(-c3ccc(F)cc3)[nH]n2)cn1 [Compound A-182] | < 10 | < 10 | –
Cc1cc(N/C(=N\C(=O)c2ccc(C(F)(F)F)cc2)NCCC(F)(F)F)n[nH]1 [Compound A-183] | < 10 | < 10 | –
CCOCCCN/C(=N/C(=O)c1ccc(C(F)(F)F)cc1)Nc1cc(C)[nH]n1 [Compound A-184] | > 10 | > 10 | –
Cc1cc(N/C(=N\C(=O)c2ccc(C(F)(F)F)cc2)NC2CCCC2)n[nH]1 [Compound A-185] | < 10 | < 10 | –
Cc1cc(N/C(=N\C(=O)c2ccc(F)c(F)c2)NCCC(F)(F)F)n[nH]1 [Compound A-186] | > 10 | > 10 | –
Cc1cc(N/C(=N\C(=O)c2ccc(F)c(F)c2)NCC(C)(C)C)n[nH]1 [Compound A-187] | < 10 | < 10 | –

Further lines, with some results ahead:

IC50 (F1F0-ATPase) [µM] | Compound | EC50 (Ramos cells) [µM] | EC50 (Ramos cells; Homo sapiens) [µM]
< 10 | O=C(/N=C(/NCc1ccc(F)cc1Cl)Nc1cc(-c2ccc(F)cc2)[nH]n1)c1ccc(Cl)c(F)c1 [Compound A-142] | < 10 | –
< 10 | O=C(/N=C(/NCc1ccc(F)cc1Cl)Nc1cc(-c2ccccc2)[nH]n1)c1ccc(Cl)c(F)c1 [Compound A-143] | < 10 | –
< 10 | O=C(/N=C(/Nc1cc(F)cc(Cl)c1)Nc1cc(-c2cccs2)[nH]n1)c1ccc(Cl)c(F)c1 [Compound A-144] | < 10 | –
< 10 | O=C(/N=C(/Nc1cc(F)cc(Cl)c1)Nc1cc(-c2ccc(F)cc2)[nH]n1)c1ccc(Cl)c(F)c1 [Compound A-145] | < 10 | –
< 10 | O=C(/N=C(/Nc1cc(F)cc(Cl)c1)Nc1cc(C2CC2)[nH]n1)c1ccc(Cl)c(F)c1 [Compound A-146] | < 10 | –
< 10 | O=C(/N=C(/Nc1cc(F)cc(Cl)c1)Nc1cc(C2CCC2)[nH]n1)c1ccc(Cl)c(F)c1 [Compound A-147] | < 10 | –
> 10 | COc1ccc(-c2cc(N/C(=N\C(=O)c3ccc(Cl)c(F)c3)Nc3cc(F)cc(Cl)c3)n[nH]2)cc1 [Compound A-148] | > 10 | –
< 10 | O=C(N=C(Nc1cc(F)cc(Cl)c1)Nc1cc(-c2ccc(Cl)cc2)n[nH]1)c1ccc(Cl)c(F)c1 [Compound A-149] | – | < 10
< 10 | Cc1ccc(-c2cc(N/C(=N\C(=O)c3ccc(Cl)c(F)c3)Nc3cc(F)cc(Cl)c3)n[nH]2)cc1 [Compound A-150] | < 10 | –
< 10 | O=C(/N=C(/Nc1cc(F)cc(Cl)c1)Nc1cc(-c2ccccc2)[nH]n1)c1ccc(C(F)(F)F)cc1 [Compound A-151] | > 10 | –
< 10 | CC(C)(C)NC(=NC(=O)c1ccc(Cl)c(F)c1)Nc1cc(-c2ccc(F)cc2)n[nH]1 [Compound A-152] | – | < 10
< 10 | O=C(/N=C(/Nc1cc(F)cc(Cl)c1)Nc1cc(-c2ccc(F)cc2)[nH]n1)c1ccc(C(F)(F)F)cc1 [Compound A-154] | < 10 | –
> 10 | O=C(/N=C(\Nc1cc(-c2ccc(CO)cc2)[nH]n1)NC1CCCC1)c1ccc(F)c(F)c1 [Compound A-158] | > 10 | –
< 10 | CC(C)(C)N/C(=N/C(=O)c1ccc(F)c(F)c1)Nc1cc(-c2ccc(CO)cc2)[nH]n1 [Compound A-159] | < 10 | –
< 10 | CCOCCCN/C(=N/C(=O)c1ccc(F)c(F)c1)Nc1[nH]nc(-c2ccc(Cl)cc2)c1F [Compound A-160] | > 10 | –
> 10 | CC(C)CN/C(=N/C(=O)c1ccc(F)c(F)c1)Nc1[nH]nc(-c2ccc(Cl)cc2)c1F [Compound A-161] | > 10 | –
< 10 | CC(C)(C)N/C(=N/C(=O)c1ccc(F)c(F)c1)Nc1[nH]nc(-c2ccc(Cl)cc2)c1F [Compound A-162] | < 10 | –
< 10 | CC(C)CNC(=NC(=O)c1ccc(N2CCOCC2)nc1)Nc1cc(-c2ccc(F)cc2)n[nH]1 [Compound A-163] | – | < 10
< 10 | COc1cccc(C(=O)/N=C(/Nc2cc(F)cc(Cl)c2)Nc2cc(-c3ccc(Cl)cc3)[nH]n2)c1 [Compound A-168] | < 10 | –
< 10 | COc1cccc(C(=O)/N=C(/NCC(C)C)Nc2cc(-c3ccc(Cl)cc3)[nH]n2)c1 [Compound A-169] | < 10 | –
< 10 | CCC(C)N/C(=N/C(=O)c1cccc(OC)c1)Nc1cc(-c2ccc(Cl)cc2)n[nH]1 (stereo not drawn) [Compound A-170] | – | < 10
< 10 | CCC(C)N/C(=N/C(=O)c1cccc(OC)c1)Nc1cc(-c2ccc(F)cc2)n[nH]1 (stereo not drawn) [Compound A-172] | – | < 10
< 10 | CCc1cc(C(=O)/N=C(\Nc2cc(-c3ccc(F)cc3)n[nH]2)NC(C)CC)ccn1 (stereo not drawn) [Compound A-174] | – | < 10
< 10 | CCc1cc(C(=O)N=C(NCC(C)C)Nc2cc(-c3ccc(F)cc3)n[nH]2)ccn1 [Compound A-176] | – | < 10
< 10 | CCC(C)N/C(=N/C(=O)c1ccc(Cl)c(F)c1)Nc1cc(C)n[nH]1 (stereo not drawn) [Compound A-178] | – | < 10
> 10 | Cc1cc(NC(=NC(=O)c2ccc(Cl)c(F)c2)NCCC(F)(F)F)[nH]n1 [Compound A-179] | – | > 10
< 10 | Cc1cc(NC(=NC(=O)c2ccc(Cl)c(F)c2)NC(C)(C)C)[nH]n1 [Compound A-181] | – | < 10
